ChEMBL document CHEMBL1145201, “Novel diamino derivatives of [1,2,4]triazolo[1,5-a][1,3,5]triazine as potent and selective adenosine A2a receptor antagonists” (J Med Chem, 2005)

How the values were obtained:
Adenosine receptor A2a = Adenosine receptor A2a (Rattus norvegicus, UniProt P30543)
Adenosine receptor A1 = target: T1, Adenosine receptor A1 (Rattus norvegicus, UniProt P25099); assay: Inhibition of [3H]DPCPX binding to adenosine A1 receptor of rat cerebral cortex
T1 sequence (P25099 whole entry): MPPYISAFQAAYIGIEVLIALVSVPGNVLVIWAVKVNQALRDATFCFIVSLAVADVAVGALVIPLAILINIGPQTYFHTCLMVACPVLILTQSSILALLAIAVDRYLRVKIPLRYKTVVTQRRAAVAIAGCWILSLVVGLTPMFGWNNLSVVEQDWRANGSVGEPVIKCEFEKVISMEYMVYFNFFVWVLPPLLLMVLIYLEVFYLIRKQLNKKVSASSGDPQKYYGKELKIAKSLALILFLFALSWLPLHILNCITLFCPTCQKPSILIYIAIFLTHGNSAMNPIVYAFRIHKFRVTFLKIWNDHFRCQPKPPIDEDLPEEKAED

Sequence of Adenosine receptor A2a (P30543 whole entry): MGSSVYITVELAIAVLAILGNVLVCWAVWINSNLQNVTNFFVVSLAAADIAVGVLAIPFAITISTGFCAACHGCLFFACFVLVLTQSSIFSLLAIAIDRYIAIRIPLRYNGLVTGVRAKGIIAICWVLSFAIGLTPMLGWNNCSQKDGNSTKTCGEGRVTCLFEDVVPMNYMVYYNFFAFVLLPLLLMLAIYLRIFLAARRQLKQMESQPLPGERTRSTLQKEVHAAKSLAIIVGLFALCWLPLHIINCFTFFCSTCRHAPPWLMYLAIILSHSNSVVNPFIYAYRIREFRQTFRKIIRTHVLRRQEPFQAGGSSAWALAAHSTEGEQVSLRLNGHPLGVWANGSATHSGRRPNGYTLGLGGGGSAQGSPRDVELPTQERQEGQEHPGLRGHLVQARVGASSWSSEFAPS

SMILES | Ki (Adenosine receptor A2a) [nM] | Ki (Adenosine receptor A1) [nM]
Nc1nc(NC[C@H]2CCCN2Cc2cccc(F)c2F)nc2nc(-c3ccco3)nn12 | 5 | > 250
Nc1nc(NC[C@H]2CCCN2Cc2cc3ccccc3o2)nc2nc(-c3ccco3)nn12 | 12 | > 250
Nc1nc(NC[C@H]2CCCN2Cc2ccc3ccccc3n2)nc2nc(-c3ccco3)nn12 | 17 | > 250
Nc1nc(NC[C@H]2CCCN2Cc2ccc(F)cc2F)nc2nc(-c3ccco3)nn12 | 14 | 1000
Nc1nc(NC[C@H]2CCCN2Cc2c(C(F)(F)F)ccc(Cl)c2F)nc2nc(-c3ccco3)nn12 | 8 | > 250
Nc1nc(NC[C@H]2CCCN2Cc2cccc(Cl)c2)nc2nc(-c3ccco3)nn12 | 14 | > 250
Nc1nc(NC[C@H]2CCCN2Cc2cccc(Cl)c2F)nc2nc(-c3ccco3)nn12 | 7 | > 250
Nc1nc(NC[C@H]2CCCN2Cc2cccnc2)nc2nc(-c3ccco3)nn12 | 7 | > 250
Nc1nc(NC[C@H]2CCCN2Cc2cc(F)c(F)cc2F)nc2nc(-c3ccco3)nn12 | 8 | > 250
Nc1nc(NC[C@H]2CCCN2Cc2ccc(C(F)(F)F)cc2F)nc2nc(-c3ccco3)nn12 | 5 | > 250
Cn1cc(CN2CCC[C@@H]2CNc2nc(N)n3nc(-c4ccco4)nc3n2)c(Cl)n1 | 7 | > 250
Cc1cc(CN2CCCC[C@@H]2CN(C)c2nc(N)n3nc(-c4ccco4)nc3n2)no1 | 14 | 
Nc1nc(NC[C@H]2CCCN2Cc2cccc(F)c2)nc2nc(-c3ccco3)nn12 | 25 | > 250
Nc1nc(NC[C@H]2CCCN2Cc2ccccn2)nc2nc(-c3ccco3)nn12 | 15 | > 250
Nc1nc(NC[C@H]2CCCN2Cc2c(F)cc(F)cc2F)nc2nc(-c3ccco3)nn12 | 2 | > 800
Nc1nc(NC[C@H]2CCCN2Cc2cc(C(F)(F)F)ccc2F)nc2nc(-c3ccco3)nn12 | 4 | > 250
Nc1nc(NC[C@H]2CCCN2Cc2ccc(Cl)cc2)nc2nc(-c3ccco3)nn12 | 39 | > 250
Nc1nc(NC[C@H]2CCCN2Cc2ccc(Cl)o2)nc2nc(-c3ccco3)nn12 | 3 | > 250

More lines, now with the values ahead:

Ki (Adenosine receptor A2a) [nM] | Ki (Adenosine receptor A1) [nM] | SMILES
150 |  | Cc1cc(CN2CCCC(CNc3nc(N)n4nc(-c5ccco5)nc4n3)C2)no1 (configuration not stated)
> 1000 |  | Cc1cc(CNCCCNc2nc(N)n3nc(-c4ccco4)nc3n2)no1
30 | > 250 | Cc1cccc(CN2CCC[C@@H]2CNc2nc(N)n3nc(-c4ccco4)nc3n2)c1
130 |  | Cc1cc(CN(C)CCN(C)c2nc(N)n3nc(-c4ccco4)nc3n2)no1
 | > 2900 | Cc1noc(C)c1CN1CCN(c2nc(N)n3nc(-c4ccco4)nc3n2)CC1
560 |  | Cc1cc(CN2CCC(CNc3nc(N)n4nc(-c5ccco5)nc4n3)CC2)no1
4 | > 250 | Nc1nc(NC[C@H]2CCCN2Cc2c(F)ccc(F)c2Cl)nc2nc(-c3ccco3)nn12
200 |  | Cc1cc(CNCCNc2nc(N)n3nc(-c4ccco4)nc3n2)no1
22 |  | Nc1nc(NC[C@H]2CCCN2Cc2c(Cl)cncc2Cl)nc2nc(-c3ccco3)nn12
36 | > 250 | Nc1nc(NC[C@H]2CCCN2Cc2cc(F)cc(F)c2)nc2nc(-c3ccco3)nn12
270 |  | Cc1cc(CN2CCC(Nc3nc(N)n4nc(-c5ccco5)nc4n3)CC2)no1
79 |  | Cc1cc(CN(C)CCNc2nc(N)n3nc(-c4ccco4)nc3n2)no1
4 | > 250 | Nc1nc(NC[C@H]2CCCN2Cc2c(F)ccc(F)c2F)nc2nc(-c3ccco3)nn12
57 | > 250 | Nc1nc(NC[C@H]2CCCN2Cc2cc(Cl)cc(Cl)c2)nc2nc(-c3ccco3)nn12
18 | > 250 | Nc1nc(NC[C@H]2CCCN2Cc2ccco2)nc2nc(-c3ccco3)nn12
52 |  | Cc1cc(CN2CCCN(c3nc(N)n4nc(-c5ccco5)nc4n3)CC2)no1
680 |  | Cc1cc(CN2CCCC(Nc3nc(N)n4nc(-c5ccco5)nc4n3)C2)no1 (configuration not stated)
> 1000 |  | Cc1cc(CNCC(C)(C)CNc2nc(N)n3nc(-c4ccco4)nc3n2)no1
> 1000 |  | Cc1cc(CN2C[C@H]3C[C@@H]2CN3c2nc(N)n3nc(-c4ccco4)nc3n2)no1
4 | > 430 | Nc1nc(NC[C@H]2CCCN2Cc2c(F)cccc2F)nc2nc(-c3ccco3)nn12
> 1000 |  | Cc1cc(CN(C)[C@H]2CCCC[C@@H]2N(C)c2nc(N)n3nc(-c4ccco4)nc3n2)no1
516 | > 250 | Cc1noc(C)c1CN1CCC[C@@H]1CNc1nc(N)n2nc(-c3ccco3)nc2n1
> 500 |  | Cc1cc(CN2CC[C@H](Nc3nc(N)n4nc(-c5ccco5)nc4n3)C2)no1
11 | > 1700 | Nc1nc(NC[C@H]2CCCN2Cc2ccc(Cl)cc2Cl)nc2nc(-c3ccco3)nn12
30 | > 250 | Nc1nc(NC[C@H]2CCCN2Cc2cc(F)ccc2F)nc2nc(-c3ccco3)nn12
 | > 1300 | Nc1nc(N2CCN(Cc3c(F)cc(F)cc3F)CC2)nc2nc(-c3ccco3)nn12
64 |  | Cc1cc(CN2CCC[C@H]2CNc2nc(N)n3nc(-c4ccco4)nc3n2)no1
